# Test results: patent EP4389751A1, “HETEROCYCLIC COMPOUNDS AND USES THEREOF” (Kumquat Biosciences Inc., priority 2021, dated 2024)
# Where two headings read alike, the source gives them in different places.
# Tests used:
# GP2D cells = assay: Cell proliferation assay (CellTiter-Glo), K-Ras G12D cells; assay type: cell-based; details: read-out: Inhibition of GP2D Cells (IC50)
# In short: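 GP2D (K-Ras G12D) cells seeded in DMEM with 2 mM glutamine and 10% FBS, then dosed next day with a dilution series (e.g., 9-point 3-fold). Viability read by CellTiter-Glo luminescence after about 5 days. IC50 from four-parameter fit.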
# A549 cells = assay: Cell proliferation assay (CellTiter-Glo), K-Ras G12S cells; assay type: cell-based; details: for IC50: Homo sapiens; for ratio of IC50 against a G12D cell line to IC50 against a G12S cell line: K-Ras G12D cell line such as GP2D relative to K-Ras G12S cell line such as A549, greater than 1, 2, 3, 4, 5, 10, 15 or even greater, 8640 min
# In short: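 A549 cells (K-Ras G12S) in RPMI-1640 with 10% FBS, seeded in standard or ultra-low-attachment plates and dosed next day with a 10-point 3-fold series. Viability read about 6 days later by CellTiter-Glo luminescence. IC50 from four-parameter fit.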
# [1] = A549, A549 cells (K-Ras G12S), bin ≤ 500 nM, read-out: Inhibition of A549 Cells (IC50)
# [2] = A549, read-out: Inhibition of A549 Cells (IC50)
# [3] = A549, A549 cells (K-Ras G12S), bin 500 nM to 5 µM, read-out: Inhibition of A549 Cells (IC50)
IC50 (A549 cells; [1]),IC50 (A549 cells; [3]),ratio of IC50 against a G12D cell line to IC50 against a G12S cell line (A549 cells),SMILES,IC50 (GP2D cells; GP2D cells (K-Ras G12D)),IC50 (GP2D cells; GP2d),IC50 (A549 cells; [2])
≤ 0.5 µM,,,"N#Cc1c(N)sc2c(F)ccc(-c3c(Cl)cc4c(N5CCOC6(CN(C(=O)n7ccnn7)C6)C5)nc(OC[C@@]56CCCN5C[C@H](F)C6)nc4c3F)c12 [Compound A195, 4-(4-(2-(1H-1,2,3-triazole-1-carbonyl)-5-oxa-2,8-diazaspiro[3.5]nonan-8-yl)-6-chloro-8-fluoro-2-(((2R,7aS)-2-fluorotetrahydro-1H-pyrrolizin-7a(5H)-yl)methoxy)quinazolin-7-yl)-2-amino-7-fluorobenzo[b]thiophene-3-carbonitrile]",1 to 10 µM,,
,,,"N#Cc1nccn1C(=O)N1C2CCC1CN(c1nc(OC[C@@]34CCCN3C[C@H](F)C4)nc3c(F)c(-c4ccc(F)c5sc(N)nc45)c(Cl)cc13)C2 [Compound A170, 1-(3-(7-(2-amino-7-fluorobenzo[d]thiazol-4-yl)-6-chloro-8-fluoro-2-(((2R,7aS)-2-fluorotetrahydro-1H-pyrrolizin-7a(5H)-yl)methoxy)quinazolin-4-yl)-3,8-diazabicyclo[3.2. 1]octane-8-carbonyl)-1H-imidazole-2-carbonitrile]",,≤ 1 µM,0.5 to 5 µM
≤ 0.5 µM,,,"CN(C)C1CN(c2nc(N3CCOC4(CN(C(=O)n5cncn5)C4)C3)c3cc(Cl)c(-c4ccc(F)c5sc(N)c(C#N)c45)c(F)c3n2)C1 [Compound A256, 4-(4-(2-(1H-1,2,4-triazole-1-carbonyl)-5-oxa-2,8-diazaspiro[3.5]nonan-8-yl)-6-chloro-2-(3-(dimethylamino)azetidin-1-yl)-8-fluoroquinazolin-7-yl)-2-amino-7-fluorobenzo[b]thiophene-3-carbonitrile]",1 to 10 µM,,
≤ 0.5 µM,,,"N#Cc1c(N)sc2c(F)ccc(-c3c(Cl)cc4c(N5CC6(CCCCN(C(=O)n7cncn7)C6)C5)nc(OC[C@@]56CCCN5C[C@H](F)C6)nc4c3F)c12 [Compound A285, 4-(4-(6-(1H-1,2,4-triazole-1-carbonyl)-2,6-diazaspiro[3.6]decan-2-yl)-6-chloro-8-fluoro-2-(((2R,7aS)-2-fluorotetrahydro-1H-pyrrolizin-7a(5H)-yl)methoxy)quinazolin-7-yl)-2-amino-7-fluorobenzo[b]thiophene-3-carbonitrile]",1 to 10 µM,,
,0.5 to 5 µM,,"Nc1nc2c(-c3c(Cl)cc4c(N5CCCN(C(=O)n6cncn6)CC5)nc(OC[C@@]56CCCN5C[C@H](F)C6)nc4c3F)ccc(F)c2s1 [Compound A191, (4-(7-(2-amino-7-fluorobenzo[d]thiazol-4-yl)-6-chloro-8-fluoro-2-(((2R,7aS)-2-fluorotetrahydro-1H-pyrrolizin-7a(5H)-yl)methoxy)quinazolin-4-yl)-1,4-diazepan-1-yl)(1H-1,2,4-triazol-1-yl)methanone]",1 to 10 µM,,
≤ 0.5 µM,,,"Cc1nc(C)n(C(=O)N2CC3(COCCN(c4nc(OC[C@@]56CCCN5C[C@H](F)C6)nc5c(F)c(-c6ccc(F)c7sc(N)c(C#N)c67)c(Cl)cc45)C3)C2)n1 [Compound A185, 2-amino-4-(6-chloro-4-(2-(3,5-dimethyl-1H-1,2,4-triazole-1-carbonyl)-6-oxa-2,9-diazaspiro[3.6]decan-9-yl)-8-fluoro-2-(((2R,7aS)-2-fluorotetrahydro-1H-pyrrolizin-7a(5H)-yl)methoxy)quinazolin-7-yl)-7-fluorobenzo[b]thiophene-3-carbonitrile]",1 to 10 µM,,
,0.5 to 5 µM,,"COCCN1CCC(Oc2nc(N3CCCCC4(CN(C(=O)n5cncn5)C4)C3)c3cc(Cl)c(-c4ccc(F)c5sc(N)c(C#N)c45)c(F)c3n2)CC1 [Compound A119, 4-(4-(2-(1H-1,2,4-triazole-1-carbonyl)-2,6-diazaspiro[3.6]decan-6-yl)-6-chloro-8-fluoro-2-((1-(2-methoxyethyl)piperidin-4-yl)oxy)quinazolin-7-yl)-2-amino-7-fluorobenzo[b]thiophene-3-carbonitrile]",1 to 10 µM,,
≤ 0.5 µM,,,"Cc1ncn(C(=O)N2CC3(C2)CN(c2nc(OC[C@@]45CCCN4C[C@H](F)C5)nc4c(F)c(-c5ccc(F)c6sc(N)c(C#N)c56)c(Cl)cc24)CCO3)n1 [Compound A148, 2-amino-4-(6-chloro-8-fluoro-2-(((2R,7aS)-2-fluorotetrahydro-1H-pyrrolizin-7 a(5H)-yl)methoxy)-4-(2-(3-methyl-1H-1,2,4-triazole-1-carbonyl)-5-oxa-2,8-diazaspiro[3.5]nonan-8-yl)quinazolin-7-yl)-7-fluorobenzo[b]thiophene-3-carbonitrile]",1 to 10 µM,,
≤ 0.5 µM,,,"N#Cc1c(N)sc2c(F)ccc(-c3c(Cl)cc4c(OC5CCCCN(C(=O)n6cncn6)C5)nc(OC[C@@]56CCCN5C[C@H](F)C6)nc4c3F)c12 (stereo partly drawn) [Compound A258, 4-(4-((1-(1H-1,2,4-triazole-1-carbonyl)azepan-3-yl)oxy)-6-chloro-8-fluoro-2-(((2R,7aS)-2-fluorotetrahydro-1H-pyrrolizin-7a(5H)-yl)methoxy)quinazolin-7-yl)-2-amino-7-fluorobenzo[b]thiophene-3-carbonitrile]",≤ 1 µM,,
≤ 0.5 µM,,,"CN1CCC[C@H]1COc1nc(N2CCOC3(CN(C(=O)n4cncn4)C3)C2)c2cc(Cl)c(-c3ccc(F)c4sc(N)c(C#N)c34)c(F)c2n1 [Compound A137, 4-(4-(2-(1H-1,2,4-triazole-1-carbonyl)-5-oxa-2,8-diazaspiro[3.5]nonan-8-yl)-6-chloro-8-fluoro-2-(((S)-1-methylpyrrolidin-2-yl)methoxy)quinazolin-7-yl)-2-amino-7-fluorobenzo[b]thiophene-3-carbonitrile]",1 to 10 µM,,
≤ 0.5 µM,,greater than 1,"Cc1ncn(C(=O)N2CC3(CCCN(c4nc(OC[C@@]56CCCN5C[C@H](F)C6)nc5c(F)c(-c6ccc(F)c7sc(N)c(C#N)c67)c(Cl)cc45)C3)C2)n1 [Compound A102, 2-amino-4-(6-chloro-8-fluoro-2-(((2R,7aS)-2-fluorotetrahydro-1H-pyrrolizin-7 a(5H)-yl)methoxy)-4-(2-(3-methyl-1H-1,2,4-triazole-1-carbonyl)-2,6-diazaspiro[3.5]nonan-6-yl)quinazolin-7-yl)-7-fluorobenzo[b]thiophene-3-carbonitrile]",1 to 10 µM,,
,,,"N#Cc1cn(C(=O)N2C3CCC2CN(c2nc(OC[C@@]45CCCN4C[C@H](F)C5)nc4c(F)c(-c5ccc(F)c6sc(N)nc56)c(Cl)cc24)C3)cn1 [Compound A123, 1-(3-(7-(2-amino-7-fluorobenzo[d]thiazol-4-yl)-6-chloro-8-fluoro-2-(((2R,7aS)-2-fluorotetrahydro-1H-pyrrolizin-7a(5H)-yl)methoxy)quinazolin-4-yl)-3,8-diazabicyclo[3.2. 1]octane-8-carbonyl)-1H-imidazole-4-carbonitrile]",,≤ 1 µM,0.5 to 5 µM
≤ 0.5 µM,,greater than 1,"N#Cc1c(N)sc2c(F)ccc(-c3c(Cl)cc4c(N5CCC6C5CCCN6C(=O)n5cncn5)nc(OC[C@@]56CCCN5C[C@H](F)C6)nc4c3F)c12 (stereo partly drawn) [Compound A152, 4-(4-(4-(1H-1,2,4-triazole-1-carbonyl)octahydro-1H-pyrrolo[3,2-b]pyridin-1-yl)-6-chloro-8-fluoro-2-(((2R,7aS)-2-fluorotetrahydro-1H-pyrrolizin-7a(5H)-yl)methoxy)quinazolin-7-yl)-2-amino-7-fluorobenzo[b]thiophene-3-carbonitrile]",≤ 1 µM,,
